Converted amounts (≈) assume the structure as drawn.

This test has as its system Mycobacterium tuberculosis variant bovis. The test can be described thus: Antimycobacterial activity against Mycobacterium bovis NCTC 10772 after 7 days by resazurin microtiter assay. The class given is functional. Conditions: NCTC 10772, 168 h. A general note: Alamar Blue is a resazurin reagent that responds to reducing activity.

What is called MIC is the lowest concentration found to suppress growth. Low readings indicate greater potency, high ones weaker potency. As for `N/C(=N/NC(CC(=O)c1ccc(-n2ccnc2)cc1)c1cccc(Br)c1)c1ccccn1` (stereo not given), the lowest concentration to inhibit growth (MIC) was 16.3 µM (≈ 7.98 µg/mL).
On to `N/C(=N/NC(CC(=O)c1ccc(-n2ccnc2)cc1)c1cccc(Cl)c1)c1ccccn1` (stereo not given), for which the lowest concentration to inhibit growth (MIC) was 18 µM (≈ 8.01 µg/mL).
As for `N/C(=N/NC(CC(=O)c1ccc(-n2ccnc2)cc1)c1cccc(F)c1)c1ccccn1` (stereo not given), the MIC was 18.7 µM (≈ 8.01 µg/mL).
To `N/C(=N/NC(CC(=O)c1ccc(-n2ccnc2)cc1)c1ccc(Cl)cc1)c1ccccn1` (stereo not given) belongs 18 µM (≈ 8.01 µg/mL).
`NNC(=O)c1ccncc1` [ISONIAZID]: the lowest concentration to inhibit growth (MIC) was 7.3 µM (≈ 1 µg/mL).
In the case of `N/C(=N/NC(CC(=O)c1ccc(-n2ccnc2)cc1)c1cccc([N+](=O)[O-])c1)c1ccccn1` (stereo not given) it was 17.6 µM (≈ 8.02 µg/mL); in that of `N/C(=N/NC(CC(=O)c1ccc(-n2ccnc2)cc1)c1ccccc1)c1ccccn1` (stereo not given), 39 µM (≈ 16 µg/mL).
In the case of `N/C(=N/NC(CC(=O)c1ccc(-n2ccnc2)cc1)c1ccccc1[N+](=O)[O-])c1ccccn1` (stereo not given) it was 17.6 µM (≈ 8.02 µg/mL); in that of `N/C(=N/NC(CC(=O)c1ccc(-n2ccnc2)cc1)c1ccc(Br)cc1)c1ccccn1` (stereo not given), 8.2 µM (≈ 4.01 µg/mL); in that of `N/C(=N/NC(CC(=O)c1ccc(-n2ccnc2)cc1)c1ccc(Cl)cc1Cl)c1ccccn1` (stereo not given), 9 µM (≈ 4.31 µg/mL).
Turning to `N/C(=N/NC(CC(=O)c1ccc(-n2ccnc2)cc1)c1ccc([N+](=O)[O-])cc1)c1ccccn1` (stereo not given), the minimal inhibitory concentration (MIC) stood at 35.1 µM (≈ 16 µg/mL).
To `N/C(=N/NC(CC(=O)c1ccc(-n2ccnc2)cc1)c1ccc(F)cc1)c1ccccn1` (stereo not given) belongs 18.7 µM (≈ 8.01 µg/mL); to `N/C(=N/NC(CC(=O)c1ccc(-n2ccnc2)cc1)c1ccccc1Cl)c1ccccn1` (stereo not given), 18 µM (≈ 8.01 µg/mL); to `N/C(=N/NC(CC(=O)c1ccc(-n2ccnc2)cc1)c1ccccc1F)c1ccccn1` (stereo not given), 18.7 µM (≈ 8.01 µg/mL).
To `N/C(=N/NC(CC(=O)c1ccc(-n2ccnc2)cc1)c1ccccc1Br)c1ccccn1` (stereo not given) belongs 32.7 µM (≈ 16 µg/mL).

Values taken from ChEMBL document CHEMBL3817752, “Antimycobacterial activity of new N(1)-[1-[1-aryl-3-[4-(1H-imidazol-1-yl)phenyl]-3-oxo]propyl]-pyridine-2-carboxamidrazone derivatives” (Bioorg Med Chem Lett, 2016).
